# Measured values as given in patent publication US20230115274A1, “COMPOUNDS AND COMPOSITIONS FOR TREATING CONDITIONS ASSOCIATED WITH STING ACTIVITY” (IFM Due, Inc., priority 2019, published 2023).
# Target: T1, hSTING (Homo sapiens, UniProt Q86WV6, G230A/H232R/R293Q/R71H)
# T1 construct: host or cells: THP1-Dual KO-IFNAR2 cells
# Experiment: STING reporter assay (luciferase) in THP1-Dual KO-IFNAR2 cells stimulated with 2′3′cGAMP
# Format: cell-based
# Conditions: 2′3′cGAMP 15 μM, 24 h
# Description: STING pathway activation by the compounds described herein was measured using THP1-Dual™ cells (KO-IFNAR2).
# THP1-Dual™ KO-IFNAR2 Cells (obtained from invivogen) were maintained in RPMI, 10% FCS, 5 ml P/S, 2 mM L-glut, 10 mM Hepes, and 1 mM sodium pyruvate. Compounds were spotted in empty 384 well tissue culture plates (Greiner 781182) by Echo for a final concentration of 0.0017-100 μM. Cells were plated into the TC plates at […], 2×10E6 cells/mL. For activation with STING ligand, 2′3′cGAMP (MW 718.38, obtained from Invivogen), was prepared in Optimem media.
# The following solutions were prepared for each 1×384 plate: • Solution A: 2 mL Optimem with one of the following stimuli: • […] • Solution B: 2 mL Optimem with 60 μL Lipofectamine 2000->Incubate 5 min at RT
# 2 mL of solution A and 2 ml Solution B was mixed and incubated for 20 min at room temperature (RT). 20 uL of transfection solution (A+B) was added on top of the plated cells, with a final 2′3′cGAMP concentration of 15 μM. The plates were then centrifuged immediately at 340 g for 1 minute, after which they were incubated at 37° C., 5% CO2, >98% humidity for 24 h. Luciferase reporter activity was then measured. EC50 values were calculated by using standard methods known in the art.
# Luciferase reporter assay: 10 μL of supernatant from the assay was transferred to white 384-plate with flat bottom and squared wells. One pouch of QUANTI-Luc™ Plus was dissolved in 25 mL of water. 100 μL of QLC Stabilizer per 25 mL of QUANTI-Luc™ Plus solution was added. 50 μL of QUANTI-Luc™ Plus/QLC solution per well was then added. Luminescence was measured on a Platereader (e.g., Spectramax I3X (Molecular Devices GF3637001)).
# Luciferase reporter activity was then measured. EC50 values were calculated by using standard methods known in the art.
# T1 sequence (Q86WV6 whole entry R71H/G230A/H232R/R293Q): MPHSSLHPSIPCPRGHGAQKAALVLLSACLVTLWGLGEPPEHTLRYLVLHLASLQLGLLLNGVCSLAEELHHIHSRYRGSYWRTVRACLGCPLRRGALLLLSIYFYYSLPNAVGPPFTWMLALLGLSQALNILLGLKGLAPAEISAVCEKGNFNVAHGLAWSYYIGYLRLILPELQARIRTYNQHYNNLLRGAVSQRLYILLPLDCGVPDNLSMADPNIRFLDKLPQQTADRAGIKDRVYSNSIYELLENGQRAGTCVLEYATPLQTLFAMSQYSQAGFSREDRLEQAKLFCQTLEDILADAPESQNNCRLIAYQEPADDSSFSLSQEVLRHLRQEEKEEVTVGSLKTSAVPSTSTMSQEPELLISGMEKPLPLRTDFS
Compound,EC50 (class symbols),EC50 (numeric bounds)
"CN(C(=O)OC(C)(C)C)C1CC(n2cc(NC(=O)Nc3ccc(C4CCC(F)(F)CC4)nc3)c3cc(F)cnc32)C1 (stereo not drawn) [Compound 101, tert-butyl (3-(3-(3-(6-(4,4-difluorocyclohexyl)pyridin-3-yl)ureido)-5-fluoro-1H-pyrrolo[2,3-b]pyridin-1-yl)cyclobutyl)(methyl)carbamate]",5000 to 100000 nM,
"O=C(Nc1cnc(C2CCN(CC(F)(F)F)C2)c(Cl)c1)Nc1c[nH]c2cccnc12 (stereo not drawn) [Compound 216, 1-(5-chloro-6-(1-(2,2,2-trifluoroethyl)pyrrolidin-3-yl)pyridin-3-yl)-3-(1H-pyrrolo[3,2-b]pyridin-3-yl)urea]",1000 to 5000 nM,
"COc1ccc2[nH]cc(NC(=O)Nc3cnc(N4CC(F)(F)C4)c(F)c3)c2n1 [Compound 232, 1-(6-(3,3-difluoroazetidin-1-yl)-5-fluoropyridin-3-yl)-3-(5-methoxy-1H-pyrrolo[3,2-b]pyridin-3-yl)urea]",1000 to 5000 nM,
"O=C(Nc1cnc(N2CCC3(CC2)CCC(F)(F)CO3)c(Cl)c1)Nc1c[nH]c2cccnc12 [Compound 207, 1-(5-chloro-6-(3,3-difluoro-1-oxa-9-azaspiro[5.5]undecan-9-yl)pyridin-3-yl)-3-(1H-pyrrolo[3,2-b]pyridin-3-yl)urea]",5000 to 100000 nM,
"CC(C)(C)OC(=O)N1CCC(n2cc(NC(=O)Nc3ccc(C4CCC(F)(F)CC4)nc3)c3cc(F)cnc32)CC1 [Compound 103, tert-butyl 4-(3-(3-(6-(4,4-difluorocyclohexyl)pyridin-3-yl)ureido)-5-fluoro-1H-pyrrolo[2,3-b]pyridin-1-yl)piperidine-1-carboxylate]",5000 to 100000 nM,
"N#Cc1cc(NC(=O)Nc2c[nH]c3cccnc23)ccc1C1CCC(F)(F)CC1 [Compound 148, 1-(3-cyano-4-(4,4-difluorocyclohexyl)phenyl)-3-(1H-pyrrolo[3,2-b]pyridin-3-yl)urea]",200 to 1000 nM,
"Cn1cc(-n2cc(NC(=O)Nc3ccc(C4CCC(F)(F)CC4)nc3)c3cc(F)cnc32)cn1 [Compound 125, 1-(6-(4,4-difluorocyclohexyl)pyridin-3-yl)-3-(5-fluoro-1-(1-methyl-1H-pyrazol-4-yl)-1H-pyrrolo[2,3-b]pyridin-3-yl)urea]",,> 30000 nM
"O=C(Nc1cnc(C2CC(F)(F)C2)c(Cl)c1)Nc1c[nH]c2cccnc12 [Compound 143, 1-(5-chloro-6-(3,3-difluorocyclobutyl)pyridin-3-yl)-3-(1H-pyrrolo[3,2-b]pyridin-3-yl)urea]",200 to 1000 nM,
"COc1ccc2[nH]cc(NC(=O)Nc3cnc(C4CCC(F)(F)CC4)c(F)c3)c2n1 [Compound 229, 1-(6-(4,4-difluorocyclohexyl)-5-fluoropyridin-3-yl)-3-(5-methoxy-1H-pyrrolo[3,2-b]pyridin-3-yl)urea]",200 to 1000 nM,
"COc1ccc2[nH]cc(NC(=O)Nc3cnc(N4CCC5(CC4)CC(F)(F)C5)c(Cl)c3)c2n1 [Compound 203, 1-(5-chloro-6-(2,2-difluoro-7-azaspiro[3.5]nonan-7-yl)pyridin-3-yl)-3-(5-methoxy-1H-pyrrolo[3,2-b]pyridin-3-yl)urea]",200 to 1000 nM,
"N#Cc1cc(NC(=O)Nc2c[nH]c3cccnc23)cnc1C1CCC(F)(F)CC1 [Compound 237, 1-(5-cyano-6-(4,4-difluorocyclohexyl)pyridin-3-yl)-3-(1H-pyrrolo[3,2-b]pyridin-3-yl)urea]",1000 to 5000 nM,
"O=C(Nc1ccc(C2CC(F)(F)C2)c(F)c1)Nc1c[nH]c2cccnc12 [Compound 239, 1-(4-(3,3-difluorocyclobutyl)-3-fluorophenyl)-3-(1H-pyrrolo[3,2-b]pyridin-3-yl)urea]",200 to 1000 nM,
"COc1ccc2[nH]cc(NC(=O)Nc3cnc(C4CC(F)(F)C4)c(Cl)c3)c2n1 [Compound 243, 1-(5-chloro-6-(3,3-difluorocyclobutyl)pyridin-3-yl)-3-(5-methoxy-1H-pyrrolo[3,2-b]pyridin-3-yl)urea]",200 to 1000 nM,
"O=C(Nc1ccc(C2CCCC2)nc1)Nc1c[nH]c2ncc(F)cc12 [Compound 109, 1-(6-cyclopentylpyridin-3-yl)-3-(5-fluoro-1H-pyrrolo[2,3-b]pyridin-3-yl)urea]",200 to 1000 nM,
"O=C(Nc1ccc(C2CCC(F)(F)CC2)nc1)Nc1cn(C(=O)c2ccccc2)c2ncc(F)cc12 [Compound 121, 1-(1-benzoyl-5-fluoro-1H-pyrrolo[2,3-b]pyridin-3-yl)-3-(6-(4,4-difluorocyclohexyl)pyridin-3-yl)urea]",200 to 1000 nM,
"O=C(Nc1ccc(C2CCC(F)(F)CC2)nc1)Nc1cn(C2CCNCC2)c2ncc(F)cc12 [Compound 128, 1-(6-(4,4-difluorocyclohexyl)pyridin-3-yl)-3-(5-fluoro-1-(piperidin-4-yl)-1H-pyrrolo[2,3-b]pyridin-3-yl)urea]",,> 30000 nM

# Second part, the compound after the results:
EC50 (class symbols),EC50 (numeric bounds),Compound
200 to 1000 nM,,"O=C(Nc1ccc(C2CCC(F)(F)CC2)nc1)Nc1c[nH]c2ncc(F)cc12 [Compound 116, 1-(6-(4,4-difluorocyclohexyl)pyridin-3-yl)-3-(5-fluoro-1H-pyrrolo[2,3-b]pyridin-3-yl)urea]"
1000 to 5000 nM,,"COc1cnc2[nH]cc(NC(=O)Nc3cnc(C4CCC(F)(F)CC4)c(C)c3)c2c1 [Compound 174, 1-(6-(4,4-difluorocyclohexyl)-5-methylpyridin-3-yl)-3-(5-methoxy-1H-pyrrolo[2,3-b]pyridin-3-yl)urea]"
200 to 1000 nM,,"COc1ccc2[nH]cc(NC(=O)Nc3cnc(N4CCC(F)(F)CC4)c(C)c3)c2n1 [Compound 173, 1-(6-(4,4-difluoropiperidin-1-yl)-5-methylpyridin-3-yl)-3-(5-methoxy-1H-pyrrolo[3,2-b]pyridin-3-yl)urea]"
200 to 1000 nM,,"O=C(Nc1cnc(N2CCC(F)(F)CC2)c(Cl)c1)Nc1c[nH]c2ncccc12 [Compound 189, 1-(5-chloro-6-(4,4-difluoropiperidin-1-yl)pyridin-3-yl)-3-(1H-pyrrolo[2,3-b]pyridin-3-yl)urea]"
5000 to 100000 nM,,"CN(C)c1ccc2[nH]cc(NC(=O)Nc3cnc(N4CCC(F)(F)CC4)c(F)c3)c2n1 [Compound 175, 1-(6-(4,4-difluoropiperidin-1-yl)-5-fluoropyridin-3-yl)-3-(5-(dimethylamino)-1H-pyrrolo[3,2-b]pyridin-3-yl)urea]"
1000 to 5000 nM,,"Cc1cc(NC(=O)Nc2c[nH]c3ncc(Cl)cc23)cnc1C1CCC(F)(F)CC1 [Compound 137, 1-(5-chloro-1H-pyrrolo[2,3-b]pyridin-3-yl)-3-(6-(4,4-difluorocyclohexyl)-5-methylpyridin-3-yl)urea]"
,> 30000 nM,"Cc1cc(N2CCC(F)(F)CC2)cnc1NC(=O)Nc1c[nH]c2ncc(F)cc12 [Compound 177, 1-(5-(4,4-difluoropiperidin-1-yl)-3-methylpyridin-2-yl)-3-(5-fluoro-1H-pyrrolo[2,3-b]pyridin-3-yl)urea]"
200 to 1000 nM,,"O=C(Nc1cnc(C2CC(F)(F)C2)c(Cl)c1)Nc1c[nH]c2ncc(F)cc12 [Compound 166, 1-(5-chloro-6-(3,3-difluorocyclobutyl)pyridin-3-yl)-3-(5-fluoro-1H-pyrrolo[2,3-b]pyridin-3-yl)urea]"
40 to 200 nM,,"O=C(Nc1cnc(C2CCC(F)(F)CC2)c(F)c1)Nc1c[nH]c2ncc(F)cc12 [Compound 113, 1-(6-(4,4-difluorocyclohexyl)-5-fluoropyridin-3-yl)-3-(5-fluoro-1H-pyrrolo[2,3-b]pyridin-3-yl)urea]"
40 to 200 nM,,"O=C(Nc1cc(Cl)c(C2CCC(F)(F)CC2)cn1)Nc1c[nH]c2ncc(F)cc12 [Compound 152, 1-(4-chloro-5-(4,4-difluorocyclohexyl)pyridin-2-yl)-3-(5-fluoro-1H-pyrrolo[2,3-b]pyridin-3-yl)urea]"
200 to 1000 nM,,"N#Cc1cc(NC(=O)Nc2c[nH]c3ncc(F)cc23)cnc1N1CCC(F)(F)CC1 [Compound 157, 1-(5-cyano-6-(4,4-difluoropiperidin-1-yl)pyridin-3-yl)-3-(5-fluoro-1H-pyrrolo[2,3-b]pyridin-3-yl)urea]"
200 to 1000 nM,,"N#Cc1cc(NC(=O)Nc2c[nH]c3ncc(Cl)cc23)cnc1C1CCC(F)(F)CC1 [Compound 151, 1-(5-chloro-1H-pyrrolo[2,3-b]pyridin-3-yl)-3-(5-cyano-6-(4,4-difluorocyclohexyl)pyridin-3-yl)urea]"
,> 30000 nM,"Cc1cc(N2CCC(F)(F)CC2)ncc1NC(=O)Nc1c[nH]c2ncc(F)cc12 [Compound 185, 1-(6-(4,4-difluoropiperidin-1-yl)-4-methylpyridin-3-yl)-3-(5-fluoro-1H-pyrrolo[2,3-b]pyridin-3-yl)urea]"
,> 30000 nM,"Cc1cc(NC(=O)Nc2c[nH]c3ncc(F)cc23)cnc1N1CC2(COC2)C1 [Compound 159, 1-(5-fluoro-1H-pyrrolo[2,3-b]pyridin-3-yl)-3-(5-methyl-6-(2-oxa-6-azaspiro[3.3]heptan-6-yl)pyridin-3-yl)urea]"
